Results: patent US11028079B2 (ConverGene LLC, priority 2015, dated 2021)

Target: T1, BRD4 bromodomains (Homo sapiens, UniProt O60885)
T1 construct: fused on or other part: T7 phage capsid protein (phage-display fusion; the phage DNA is read out by qPCR)
Assay: BROMOscan bromodomain competition binding assay (DiscoveRx)
Conditions: Kd from 11 compound concentrations ranging from 0 to 10 μM, read-out: BROMOscan Relative Activity
Method in brief: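 Compounds in 0.1% DMSO/0.9% MEG competed with a solid-phase acetylated peptide for T7 phage-fused BRD4 bromodomains, with the retained bromodomain measured by qPCR.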

| SMILES | Kd [nM] |
| --- | --- |
| Cc1noc(C)c1-c1ccc2nc(C(=O)NC3CCN(C)CC3)nc(NCc3cncc(Cl)c3)c2c1 [Example 209, 4-(((5-chloropyridin-3-yl)methyl)amino)-6-(3,5-dimethylisoxazol-4-yl)-N-(1-methylpiperidin-4-yl)quinazoline-2-carboxamide] | < 500 |
| Cc1noc(C)c1-c1ccc2nc(C3=CCN(S(C)(=O)=O)CC3)nc(NCc3cccc(Cl)c3)c2c1 [Example 210, N-(3-chlorobenzyl)-6-(3,5-dimethylisoxazol-4-yl)-2-(1-(methylsulfonyl)-1,2,3,6-tetrahydropyridin-4-yl)quinazolin-4-amine] | 500 to 5000 |
| Cc1noc(C)c1-c1ccc2nc(C(=O)N(C)C3CCN(C)CC3)nc(NCc3cccc(Cl)c3)c2c1 [Example 211, 4-((3-chlorobenzyl)amino)-6-(3,5-dimethylisoxazol-4-yl)-N-methyl-N-(1-methylpiperidin-4-yl)quinazoline-2-carboxamide] | < 500 |
| Cc1ncc(CNC(=O)c2nc(NCc3cccc(Cl)c3)c3cc(-c4c(C)noc4C)ccc3n2)s1 [Example 212, 4-((3-chlorobenzyl)amino)-6-(3,5-dimethylisoxazol-4-yl)-N-((2-methylthiazol-5-yl)methyl)quinazoline-2-carboxamide] | < 500 |
| Cc1cnc(CNC(=O)c2nc(NCc3cccc(Cl)c3)c3cc(-c4c(C)noc4C)ccc3n2)s1 [Example 213, 4-((3-chlorobenzyl)amino)-6-(3,5-dimethylisoxazol-4-yl)-N-((5-methylthiazol-2-yl)methyl)quinazoline-2-carboxamide] | < 500 |
| Cc1csc(CNC(=O)c2nc(NCc3cccc(Cl)c3)c3cc(-c4c(C)noc4C)ccc3n2)n1 [Example 214, 4-((3-chlorobenzyl)amino)-6-(3,5-dimethylisoxazol-4-yl)-N-((4-methylthiazol-2-yl)methyl)quinazoline-2-carboxamide] | < 500 |
| Cc1noc(C)c1-c1ccc2nc(C(=O)NCc3ccncc3F)nc(NCc3cccc(Cl)c3)c2c1 [Example 215, 4-((3-chlorobenzyl)amino)-6-(3,5-dimethylisoxazol-4-yl)-N-((3-fluoropyridin-4-yl)methyl)quinazoline-2-carboxamide] | < 500 |
| Cc1cnc(CNC(=O)c2nc(NCc3cccc(Cl)c3)c3cc(-c4c(C)noc4C)ccc3n2)o1 [Example 216, 4-((3-chlorobenzyl)amino)-6-(3,5-dimethylisoxazol-4-yl)-N-((5-methyloxazol-2-yl)methyl)quinazoline-2-carboxamide] | < 500 |
| Cc1cnccc1CNC(=O)c1nc(NCc2cccc(Cl)c2)c2cc(-c3c(C)noc3C)ccc2n1 [Example 217, 4-((3-chlorobenzyl)amino)-6-(3,5-dimethylisoxazol-4-yl)-N-((3-methylpyridin-4-yl)methyl)quinazoline-2-carboxamide] | < 500 |
| Cc1cc(NC(=O)c2nc(NCc3cccc(Cl)c3)c3cc(-c4c(C)noc4C)ccc3n2)ccn1 [Example 218, 4-((3-chlorobenzyl)amino)-6-(3,5-dimethylisoxazol-4-yl)-N-(2-methylpyridin-4-yl)quinazoline-2-carboxamide] | 500 to 5000 |
| Cc1ccc(NC(=O)c2nc(NCc3cccc(Cl)c3)c3cc(-c4c(C)noc4C)ccc3n2)cn1 [Example 219, 4-((3-chlorobenzyl)amino)-6-(3,5-dimethylisoxazol-4-yl)-N-(6-methylpyridin-3-yl)quinazoline-2-carboxamide] | 500 to 5000 |
| Cc1ccncc1NC(=O)c1nc(NCc2cccc(Cl)c2)c2cc(-c3c(C)noc3C)ccc2n1 [Example 220, 4-((3-chlorobenzyl)amino)-6-(3,5-dimethylisoxazol-4-yl)-N-(4-methylpyridin-3-yl)quinazoline-2-carboxamide] | < 500 |
| Cc1noc(C)c1-c1ccc2nc(C(=O)Nc3cncc(F)c3)nc(NCc3cccc(Cl)c3)c2c1 [Example 221, 4-((3-chlorobenzyl)amino)-6-(3,5-dimethylisoxazol-4-yl)-N-(5-fluoropyridin-3-yl)quinazoline-2-carboxamide] | 500 to 5000 |
| Cc1noc(C)c1-c1ccc2nc(C(=O)Nc3ccc(Cl)nc3)nc(NCc3cccc(Cl)c3)c2c1 [Example 222, 4-((3-chlorobenzyl)amino)-N-(6-chloropyridin-3-yl)-6-(3,5-dimethylisoxazol-4-yl)quinazoline-2-carboxamide] | > 5000 |
| Cc1noc(C)c1-c1ccc2nc(C(=O)Nc3ccncc3F)nc(NCc3cccc(Cl)c3)c2c1 [Example 223, 4-((3-chlorobenzyl)amino)-6-(3,5-dimethylisoxazol-4-yl)-N-(3-fluoropyridin-4-yl)quinazoline-2-carboxamide] | > 5000 |
| Cc1cc(NC(=O)c2nc(NCc3cccc(Cl)c3)c3cc(-c4c(C)noc4C)ccc3n2)cc(C)n1 [Example 224, 4-((3-chlorobenzyl)amino)-6-(3,5-dimethylisoxazol-4-yl)-N-(2,6-dimethylpyridin-4-yl)quinazoline-2-carboxamide] | 500 to 5000 |
| Cc1noc(C)c1-c1ccc2nc(C(=O)Nc3cnn(C)c3)nc(NCc3cccc(Cl)c3)c2c1 [Example 225, 4-((3-chlorobenzyl)amino)-6-(3,5-dimethylisoxazol-4-yl)-N-(1-methyl-1H-pyrazol-4-yl)quinazoline-2-carboxamide] | < 500 |
| Cc1noc(C)c1-c1ccc2nc(C(=O)NC3CCOCC3)nc(NCc3cccc(Cl)c3)c2c1 [Example 226, 4-((3-chlorobenzyl)amino)-6-(3,5-dimethylisoxazol-4-yl)-N-(tetrahydro-2H-pyran-4-yl)quinazoline-2-carboxamide] | < 500 |
| CN1CCC(NC(=O)c2cc(NCc3cccc(Cl)c3)c3cc(-c4ccc(=O)n(C)c4)ccc3n2)CC1 [Example 227, 4-((3-chlorobenzyl)amino)-6-(1-methyl-6-oxo-1,6-dihydropyridin-3-yl)-N-(1-methylpiperidin-4-yl)quinoline-2-carboxamide] | < 500 |
| Cc1noc(C)c1-c1ccc2nc(C(=O)NC3CCN(C)CC3)cc(NCc3cccc(Cl)c3)c2c1 [Example 228, 4-((3-chlorobenzyl)amino)-6-(3,5-dimethylisoxazol-4-yl)-N-(1-methylpiperidin-4-yl)quinoline-2-carboxamide] | < 500 |
| Cc1noc(C)c1-c1ccc2nc(C(=O)NC3CCOCC3)nc(NCc3cncc(Cl)c3)c2c1 [Example 229, 4-(((5-chloropyridin-3-yl)methyl)amino)-6-(3,5-dimethylisoxazol-4-yl)-N-(tetrahydro-2H-pyran-4-yl)quinazoline-2-carboxamide] | < 500 |
| Cc1nn(C)cc1CNC(=O)c1cc(NCc2cccc(Cl)c2)c2cc(-c3c(C)noc3C)ccc2n1 [Example 230, 4-((3-chlorobenzyl)amino)-N-((1,3-dimethyl-1H-pyrazol-4-yl)methyl)-6-(3,5-dimethylisoxazol-4-yl)quinoline-2-carboxamide] | < 500 |
| Cc1noc(C)c1-c1ccc2nc(C(=O)NCC3CN(C)C3)cc(NCc3cccc(Cl)c3)c2c1 [Example 231, 4-((3-chlorobenzyl)amino)-6-(3,5-dimethylisoxazol-4-yl)-N-((1-methylazetidin-3-yl)methyl)quinoline-2-carboxamide] | < 500 |
| Cc1noc(C)c1-c1ccc2nc(C(=O)NCc3cncn3C)nc(NCc3cncc(Cl)c3)c2c1 [Example 232, 4-(((5-chloropyridin-3-yl)methyl)amino)-6-(3,5-dimethylisoxazol-4-yl)-N-((1-methyl-1H-imidazol-5-yl)methyl)quinazoline-2-carboxamide] | < 500 |
